Data taken from patent publication US20050026849A1, “Water soluble formulations of digitalis glycosides for treating cell-proliferative and other diseases” (priority 2003, published 2005).

How the values were obtained:
[1] = Solubilization in aqueous hydroxypropyl-cyclodextrin solution; type: physicochemical
Procedure: (§1) 100 milligrams of oleandrin was weighed and placed in a 5 mL scintillation tube. 1.5 mL of absolute ethanol was added to the tube and shaken until the oleandrin was completely dissolved. 5 grams of pyrogen free hydroxypropyl-β-cyclodextrin (sold by, Sigma-Aldrich, Inc., St. Louis, Mo., USA) was weighed on an analytical scale and placed in a graduated cylinder. Water was added with shaking until the volume reached 90 ml. The above ethanolic solution of oleandrin was added to the aqueous solution containing hydroxypropyl-β-cyclodextrin with stirring. A clear solution was obtained. Water was added to the clear solution to make the total volume to 100 mL. Thus, 1 mg oleandrin was effectively solubilized in 1 ml of 5% solution of hydroxypropyl-β-cyclodextrin. The solution was sterile-filtered through a 0.22 μm filter. The suspension was frozen below −40° C. and lyophilized. The lyophilized cake was reconstituted with sterile water for injection prior to further use.
The previous experiment was repeated using a 2% solution of hydroxypropyl-β-cyclodextrin prepared as in Example 1. 100 mg of oleandrin was dissolved in 100 mL of water containing 2.5 grams of hydroxypropyl-β-cyclodextrin. The solution was sterile-filtered through a 0.22 μm filter. The solution was frozen below −40° C. and lyophilized. The lyophilized cake was reconstituted with sterile water for injection prior to further use.
The experiment in example 1 was repeated using a 100 mg of Odoroside-A instead of oleandrin. 100 mg of Odoroside-A was dissolved in 5 grams of hydroxypropyl-β-cyclodextrin in 100 mL of water. The solution was sterile-filtered through a 0.22 μm filter. The solution was frozen below −40° C. and lyophilized. The lyophilized cake was reconstituted with sterile water for injection prior to further use.
as §1, with “5mL” for “5 mL”, “1-2” for “1.5”, “2.5” for “5”, “hydroxypropyl-γ-cyclodextrin” for “hydroxypropyl-β-cyclodextrin”, “2.5%” for “5%”, “hydroxypropyl-γ-cyclodextrin.” for “hydroxypropyl-β-cyclodextrin.”
as §1, with “of Proscillaridin-A” for “of oleandrin”, “tube. 1-2” for “tube. 1.5”, “the Proscillaridin-A” for “the oleandrin”, “dissolved. 2” for “dissolved. 5”, “mg Proscillaridin-A” for “mg oleandrin”, “of 2%” for “of 5%”
The previous experiment was repeated using a 5% solution of hydroxypropyl-β-cyclodextrin prepared as in Example 5. […]

[2] = test system: androgen-independent human prostate cancer cell lines; conditions: in vitro; cited from earlier work
[3] = oral tablet containing 0.25 mg, humans; cited from earlier work
[4] = test system: primary cultures of tumor cells from patients and a human cell line panel; conditions: cited from earlier work
[5] = test system: various cancer cell lines; conditions: cited from earlier work
[6] = test system: different human malignant cell lines; conditions: non-toxic concentrations; cited from earlier work
[7] = rapidly dissolving γ-cyclodextrin complex (molar ratio 1:4), oral, dogs; cited from earlier work
[8] = test system: FGF-2 release from DU145 cells; conditions: 0.1 ng/mL; cited from earlier work
AP-1 = conditions: induced by TNF and other agents; cited from earlier work
[9] = in vivo; cited from earlier work
[10] = test system: FGF-2 release from PC3 cells; conditions: 0.1 ng/mL; cited from earlier work
[11] = Oleandrin stirred and shaken with water; type: physicochemical; conditions: 10 mg stirred and shaken with 10 ml of water, after 20 minutes
Procedure: 10 milligrams (mg) of oleandrin was stirred and shaken with 10 ml of water in a test tube.

human cancer cells = conditions: cited from earlier work
NF-κB = conditions: cited from earlier work
[12] = in 100 mL of water containing 5 grams of hydroxypropyl-β-cyclodextrin
[13] = in 1 ml of 2.5% solution of hydroxypropyl-γ-cyclodextrin
[14] = in 50 ml of 9.8% solution of hydroxypropyl-β-cyclodextrin, 70-80 degree centigrade

SMILES: CO[C@@H]1C[C@H](O[C@H]2CC[C@@]3(C)[C@H](CC[C@@H]4[C@@H]3CC[C@]3(C)[C@@H](C5=CC(=O)OC5)CC[C@]43O)C2)O[C@H](C)[C@@H]1O [Odoroside-A, Odoroside A]
- amount dissolved [1, 12]: 100 mg

SMILES: C[C@@H]1O[C@@H](O[C@H]2C[C@@H](O)[C@]3(CO)[C@H]4[C@H](O)C[C@]5(C)[C@@H](C6=CC(=O)OC6)CC[C@]5(O)[C@@H]4CC[C@]3(O)C2)[C@H](O)[C@H](O)[C@H]1O [Ouabain]
- induction of apoptosis [2]: induce apoptosis

SMILES: C[C@@H]1O[C@@H](O[C@@H]2C=C3CC[C@@H]4[C@H](CC[C@]5(C)[C@@H](c6ccc(=O)oc6)CC[C@]45O)[C@@]3(C)CC2)[C@H](O)[C@H](O)[C@H]1O [Proscillaridin-A, Proscillaridin A, reference compound]
- bioavailability [3]: 20-30%
- amount effectively solubilized ([1]; in 1 ml of 2% solution of hydroxypropyl-β-cyclodextrin): 1 mg
- amount effectively solubilized [1, 13]: 1 mg
- amount effectively solubilized [1, 14]: 100 mg
- amount dissolved [1, 12]: 100 mg
- selective toxicity solid vs hematological tumor cells [4]: no selective toxicity

SMILES: CO[C@@H]1C[C@H](O[C@H]2CC[C@@]3(C)[C@H](CC[C@@]45O[C@@]46CC[C@H](C4=CC(=O)OC4)[C@@]6(C)CC[C@H]35)C2)O[C@H](C)[C@@H]1O [adynerin]
- anti-cancer activity [5]: significant anti-cancer activities

SMILES: C[C@H]1O[C@@H](O[C@H]2[C@@H](O)C[C@H](O[C@H]3[C@@H](O)C[C@H](O[C@H]4CC[C@@]5(C)[C@H](CC[C@@H]6[C@@H]5CC[C@]5(C)[C@@H](C7=CC(=O)OC7)CC[C@]65O)C4)O[C@@H]3C)O[C@@H]2C)C[C@H](O)[C@@H]1O [digitoxin]
- selective toxicity solid vs hematological tumor cells [4]: selective toxicity against solid tumor cells
- growth and apoptosis [6]: inhibits growth and induce apoptosis

SMILES: C[C@H]1O[C@@H](O[C@H]2[C@@H](O)C[C@H](O[C@H]3[C@@H](O)C[C@H](O[C@H]4CC[C@@]5(C)[C@H](CC[C@@H]6[C@@H]5C[C@@H](O)[C@]5(C)[C@@H](C7=CC(=O)OC7)CC[C@]65O)C4)O[C@@H]3C)O[C@@H]2C)C[C@H](O)[C@@H]1O [digoxin]
- increase of plasma levels [7]: approximately 5.4 fold
- induction of apoptosis [2]: induce apoptosis
- selective toxicity solid vs hematological tumor cells [4]: selective toxicity against solid tumor cells
- growth and apoptosis [6]: inhibits growth and induce apoptosis

SMILES: CO[C@H]1C[C@H](O[C@H]2CC[C@@]3(C)[C@H](CC[C@@H]4[C@@H]3CC[C@]3(C)[C@@H](C5=CC(=O)OC5)[C@@H](OC(C)=O)C[C@]43O)C2)O[C@@H](C)[C@@H]1O [oleandrin, 16b-acetoxy-3b-[(2,6 dideoxy-3-0-methyl-a2-L-arabino-hexopyranosyl)oxy]-14-hydroxy-5β, 14β-card-20(22)-enolide]
- anti-cancer activity [5]: significant anti-cancer activities
- inhibition of FGF-2 release [8]: 49.9%
- induction of apoptosis [2]: induce apoptosis
- AP-1 activation (AP-1): blocked
- amount effectively solubilized [1, 13]: 1 mg
- amount effectively solubilized ([1]; in 1 ml of 5% solution of hydroxypropyl-β-cyclodextrin): 1 mg
- amount effectively solubilized [1, 14]: 100 mg
- amount dissolved ([1]; in 100 mL of water containing 2.5 grams of hydroxypropyl-β-cyclodextrin (called 2% solution)): 100 mg
- time of elimination from the body [9]: one to two
- inhibition of FGF-2 release [10]: 45.7%
- dissolution in water [11]: Appreciable quantities of compound remained out of solution
- cell killing (human cancer cells): able to induce cell killing
- TNF-induced activation of NF-κB (NF-κB): blocked

SMILES: C[C@H]1[C@H](C)CC[C@]2(C(=O)O)CC[C@]3(C)C(=CC[C@@H]4[C@@]5(C)CC[C@H](O)C(C)(C)[C@@H]5CC[C@]43C)[C@H]12 [ursolic acid]
- anti-cancer activity [5]: significant anti-cancer activities
